Literature values, collected in patent publication US20250221954A1, “METHODS TO TREAT, PREVENT, OR REDUCE HYPERAMMONEMIA” (priority 2024, published 2025).

Tests used:
[1] = decrease in clearance with increased dose
[2] = prolonged, multiday maintenance of phenylacetate infusions

Compound | elimination [1] | potential neurotoxicity [2]
O=C([O-])c1ccccc1.[Na+] [benzoate, sodium benzoate] | saturable, non-linear elimination | 
O=C([O-])Cc1ccccc1.[Na+] [phenylacetate, sodium phenylacetate] | saturable, non-linear elimination | somnolence, fatigue, and lightheadedness
